Results on 11 compounds are retold here after ChEMBL document CHEMBL1125521, “Oxygen isosteric derivatives of 3-(3-hydroxyphenyl)-N-n-propylpiperidine” (J Med Chem, 1992).

As a reminder, the IC50 is the midpoint of a concentration-inhibition curve. Low values mean inhibition by little substance, high ones a need for much substance.

The source made the active and inactive calls. No cut-off for these calls is given here.

Assay [1] has as its target D(2) dopamine receptor (Rattus norvegicus) (UniProt P61169). Description: Displacement of [3H]spiroperidol from dopamine receptor D2 binding sites of rat striatal membranes; inactive. The class given is cell membranes. The conditions noted are these: Membrane. (Displacement assays read how much labelled ligand stays bound in the presence of the test substance.)
In assay [2] the target is Serotonin 1 (5-HT1) receptor (Rattus norvegicus, UniProt P28564+P30940+P19327+P28565). Description: Compound was evaluated for the inhibition of [3H]5-HT (concentration of 12 nM) specific binding to rat hippocampus. The class given is tissue-based.
Another assay has as its target D(2) dopamine receptor (Rattus norvegicus, UniProt P61169). As to the kind of experiment: Ability to displace [3H]spiroperidol, from dopamine receptor D2 specific binding sites of rat striatal membranes. Set-up: species or system Striatum, Membrane.

Sequence of D(2) dopamine receptor (Rattus norvegicus) (P61169 whole entry): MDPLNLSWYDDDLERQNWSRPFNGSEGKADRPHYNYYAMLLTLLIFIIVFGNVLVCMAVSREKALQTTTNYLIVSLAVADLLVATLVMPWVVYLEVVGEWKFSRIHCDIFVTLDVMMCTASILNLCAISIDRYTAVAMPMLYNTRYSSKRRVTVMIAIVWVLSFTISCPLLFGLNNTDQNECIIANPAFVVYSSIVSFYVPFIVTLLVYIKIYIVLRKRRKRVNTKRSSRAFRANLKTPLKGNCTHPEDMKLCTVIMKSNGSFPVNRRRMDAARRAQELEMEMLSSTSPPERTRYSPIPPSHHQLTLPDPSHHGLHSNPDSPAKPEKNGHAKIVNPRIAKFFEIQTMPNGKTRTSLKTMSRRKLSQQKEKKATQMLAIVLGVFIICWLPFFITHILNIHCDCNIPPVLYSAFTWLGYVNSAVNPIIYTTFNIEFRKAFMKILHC
Sequence of D(2) dopamine receptor (P61169 whole entry): as above

For `CCCN1CCOC(c2cccc(Cl)c2)C1` (stereo not given), the outcome in assay [1] was inactive. In assay [2], the IC50 was 5 µM.

`CCCN1CCOC(c2ccsc2)C1` (stereo not given): the result in assay [1] was inactive.

For `CCCN1CCOC(c2cccc(O)c2)C1` (stereo not given), in assay [1], the outcome was inactive.

On D(2) dopamine receptor, `CCCN1CCCC(c2ccccc2OC)C1` (stereo not given) returned an IC50 of 8 µM.

As for `CCCN1CCCC(c2ccccc2O)C1` (stereo not given), the IC50 at D(2) dopamine receptor was found to be 7 µM.

For the compound `CCCN1CCOC(c2ccccc2Cl)C1` (stereo not given), in assay [1], the result was inactive. Moreover, the IC50 in assay [2] was 3 µM.

For `CCCN1CCOC(c2ccccc2OC)C1` (stereo not given), the outcome in assay [1] was inactive. For the same compound, the IC50 in assay [2] was 1 µM.

With `CCCN1CCOC(c2cccc(OC)c2)C1` (stereo not given), the result in assay [1] was inactive. Moreover, the concentration for half-maximal inhibition (IC50) in assay [2] was 1 µM.

`CCCN1CCOC(c2ccccc2O)C1` (stereo not given): the outcome in assay [1] was inactive.

Consider `CCCN1CCOC(c2cccs2)C1` (stereo not given), for which, in assay [1], the result was inactive.

As to `CCCN1CCOC(c2cccc([N+](=O)[O-])c2)C1` (stereo not given), the result in assay [1] was inactive.
